Measurements reported in patent US20260263555A1, “ANNEXIN A1 DELAYED DOSING” (Reso Ther Pharma A/S, priority 2023, published 2026).
No end group written: not given here.

Tested on: rat model of acute myocardial infarction
Assay: Peptide 1 treatment for 1 day versus 3 days, cardiac function by transthoracic echocardiography in a rat model of acute myocardial infarction
Format: in vivo, male Sprague Dawley rats
Method: Myocardial infarction was induced in male Sprague Dawley rats. On day 0 rats were anaesthetized with a mixture of 2 to 2.2% isoflurane USP (Abbot Laboratories, Montreal Canada) in oxygen, and placed on a heating pad (set at 37° C.) to maintain body temperature. The animals were intubated and immediately ventilated with a mixture of 2 to 2.2% isoflurane USP (Abbot Laboratories, Montreal Canada) in oxygen by means of a positive-pressure rodent respirator (CWE model SAR-830/P) set at ≈10 mL/kg bodyweight at a frequency of 70-80 strokes/min. The pericardium was opened to expose the heart and a 5-0 wax coated braided silk suture (Sofsilk™) was placed around the left anterior descending (LAD) coronary artery, approximately 2-3 mm below the left atrium. The suture was briefly snared to verify the size and location of myocardial ischemia based on colour change and was then tied to produce a large anterolateral myocardial infarction (affecting around 45% of the LV). The suture was kept in place for 30 minutes (30 minutes of ischemia) followed by reperfusion. A group of rats receiving sham procedure was also included. […] Fourteen days after ischemia, cardiac function was assessed by transthoracic echocardiography (echocardiograph model Q9, ChisonMedical Imaging Co. connected to a Chison 12.0 MHz probe).

Question: With “AMVSEFLKQAWFIENEEQEYVQTLKSSKGGPGSAVSPYPTFNPSSDV (AMVSEFLKQAWFIENEEQEYVQTLKSSKGGPGSAVSPYPTFNPSSDV-NH2; ends and bridges not checked) [Peptide 1]” as the sequence, how does the “improvement of cardiac output compared to vehicle treatment” value (14 days post ischemia, tail vein, three daily dosages (0, 3, 6 h post reperfusion) for 1 day or 3 days, 10, 30 or 100 ug/kg) read?
Answer: 20-30%

Question: And the long-term cardiac function (at least three dosages, echocardiography 14 days after ischemia, vs vehicle)?
Answer: significantly improves long-term cardiac function
